Measured values as given in patent US7714047B2, “Process for producing aqueous fluoropolymer dispension and aqueous fluoropolymer dispersion” (Daikin Industries, Ltd., priority 2003, dated 2010).

experiment: Octanol/water partition coefficient (log P) by HPLC elution time against a working curve of standard substances; assay type: physicochemical; details: Tosoh ODS-120T column, acetonitrile/0.6% (by mass) aqueous HClO4 = 1/1, 40° C., UV 210 nm, standards heptanoic, octanoic, nonanoic and decanoic acid
Experimental: The octanol/water partition coefficient is the coefficient of partition between 1-octanol and water and is expressed in terms of log P [wherein P represents the ratio between the fluorine-containing surfactant (A) concentration in octanol/fluorine-containing surfactant (A) concentration in water as found upon phase separation of a fluorine-containing surfactant (A)-containing octanol/water mixture (1:1)]. The octanol/water partition coefficient is determined by the measurement method according to OECD Guideline 107. In measuring the octanol/water partition coefficient, such methods as the flask shaking method and reversed-phase high performance liquid chromatography can generally be employed.
(5) Octanol/Water Partition Coefficient
Standard substances (heptanoic acid, octanoic acid, nonanoic acid and decanoic acid) each having a known octanol/water partition coefficient were subjected to HPLC under the following conditions: column: Tosoh ODS-120T column (ø4.6 mm×250 mm), eluent: acetonitrile/0.6% (by mass) aqueous solution of HClO4=1/1 (vol/vol %), flow rate: 1.0 ml/minute, sample size: 300 μL, column temperature: 40° C., detection light: UV 210 nm. A working curve showing the relation between the elution time and the known octanol/water partition coefficient was then constructed. The coefficient in question was determined from the elution time in HPLC for the sample solution based on that working curve.

| Molecule | logP: octanol/water partition coefficient |
| --- | --- |
| N.O=C(O)C(F)(F)C(F)(F)C(F)(F)C(F)(F)C(F)(F)C(F)F [Fluorine-containing surfactant 1, H(CF2CF2)3COONH4] | 2.4 |
| N.O=C(O)C(F)(OC(F)(F)C(F)(F)C(F)(F)F)C(F)(F)F (centres unmarked) [Fluorine-containing surfactant 2, C3F7OCF(CF3)COONH4] | 2.5 |
| N.O=C(O)C(F)(OC(F)(F)C(F)(OC(F)(F)F)C(F)(F)F)C(F)(F)F (centres unmarked) [Fluorine-containing surfactant 3, CF3O(CF(CF3)CF2O)CF(CF3)COONH4] | 3.4 |
| N.O=C(O)C(F)(F)C(F)(F)C(F)(F)C(F)(F)C(F)(F)C(F)(F)C(F)(F)F [Fluorine-containing surfactant 5, CF3(CF2CF2)3COONH4] | 3.5 |
| CF3CF2(CF2CF2)2COONH4 [Fluorine-containing surfactant 4] | 3.0 |
